US10085450B2, “Tetrazolinone compound and use thereof” (SUMITOMO CHEMICAL COMPANY, LIMITED, priority 2013, dated 2018)

What was measured:
[1] = system: common house mosquito (Culex pipiens pallens); assay: whole plant or invertebrate; settings: 24 h
Procedure: The test chemical solution (0.7 mL) was added to 100 mL of deionized water to thereby adjust the concentration of the active ingredient to 3.5 ppm. Twenty (20) heads of last instar larvae of common house mosquito (Culex pipiens pallens) were released in the solution. After 1 day, the number of the dead insects was counted.
Mortality was determined by the following equation. Mortality (%)=(number of dead insects/number of tested insects)×100

[2] = system: tomato late blight fungus (Phytophthora infestans); type: in vivo; settings: 500 ppm water dilution sprayed on tomato (PATIO) seedling; spores inoculated after air-drying
[3] = system: rice blast fungus (Magnaporthe grisea); type: in vivo; settings: 500 ppm water dilution sprayed on rice (NIHONBARE); contact with infected rice seedling for 6 days
[4] = system: diamondback moth (Plutella xylostella); assay: Test Example 20: diamondback moth larvae mortality on sprayed cabbage; type: in vivo; settings: 120 h
Procedure: Cabbage (cultivar: GREEN BALL) was sowed and grown in a polyethylene cup until the third to fourth true leaf was developed. The test chemical solution was sprayed over the cabbage at a rate of 20 mL per cup. After drying the chemical solution, the cabbage cut from the base was disposed in a polyethylene cup (5.5 cm in diameter) with a filter paper laid on the bottom. Five (5) heads of third-instar larvae of diamondback moth (Plutella xylostella) were released and then a lid was put on the cup. After storage at 25° C. for 5 days, the number of the surviving insects was counted and mortality was calculated by the following equation.

Row | SMILES | mortality at 3.5 ppm [1] [%] | mortality at 500 ppm [4] [%] | also measured
1 | Cc1cccc(-n2nnn(C)c2=O)c1COc1nn(C)c(-c2ccc(Cl)cc2)c1C [present compound 29, 1-(2-{[1,4-dimethyl-5-(4-chlorophenyl)-1H-pyrazol-3-yloxy]methyl}-3-methylphenyl)-4-methyl-1,4-dihydrotetrazol-5-one] | 95 | – | –
2 | Cc1cccc(-n2nnn(C)c2=O)c1COc1ccc(-c2ccc(Cl)cc2)s1 [present compound 15, 1-{2-[5-(4-chlorophenyl)thiophen-2-yloxymethyl]-3-methylphenyl}-4-methyl-1,4-dihydrotetrazol-5-one] | 95 | – | –
3 | Cc1cccc(-n2nnn(C)c2=O)c1COc1c(C)c(-c2ccccc2)nn1C [present compound 8] | – | – | area of lesion spots on the treated plant relative to that on an untreated plant [2]: ≤ 30%; lesion areas on the treated plant with respect to the lesion area on the non-treated plant [3]: ≤ 30%
4 | Cc1cccc(-n2nnn(C)c2=O)c1COc1cc(-c2ccc(Cl)cc2)nn1C [present compound 4] | – | ≥ 80 | –
5 | Cc1cccc(-n2nnn(C)c2=O)c1COc1csc(-c2ccccc2)n1 [present compound 10] | – | ≥ 80 | –
